This note sets out measurements from patent US12365658B2, “Benzothia(di)azepine compounds and their use as bile acid modulators” (Albireo AB, priority 2021, dated 2025).

In general, IC50 refers to the point on the concentration scale where inhibition reaches its midpoint. By bioavailability is commonly meant dose-corrected exposure relative to a reference, in per cent. Higher therefore signals good availability.

SMILES strings stand for the structures.

The target in one series is T1, Human LBAT (Homo sapiens, UniProt Q14973).
T1 construct: expressed in transfected cells; kept under Geneticin selection
T1 sequence (Q14973 1-349): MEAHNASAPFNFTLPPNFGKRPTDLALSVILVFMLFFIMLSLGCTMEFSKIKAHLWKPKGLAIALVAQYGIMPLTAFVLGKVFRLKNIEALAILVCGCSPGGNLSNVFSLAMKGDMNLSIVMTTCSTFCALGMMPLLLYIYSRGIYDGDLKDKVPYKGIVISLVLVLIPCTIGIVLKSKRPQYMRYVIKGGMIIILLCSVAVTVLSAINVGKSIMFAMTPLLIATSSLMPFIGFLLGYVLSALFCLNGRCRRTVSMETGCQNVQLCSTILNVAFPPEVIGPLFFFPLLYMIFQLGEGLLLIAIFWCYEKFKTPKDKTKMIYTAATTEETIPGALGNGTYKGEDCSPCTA
Put plainly: LBAT (h/m) assay, human LBAT-overexpressing cells, 3H-taurocholic acid uptake. It counts as cell-based. The following applies: 0.3 μM 3H-taurocholic acid and 7.5 μM cold taurocholic acid, 20 minutes, read-out: hLBAT IC50. The method, then:
LBAT (h/m) Assay Protocol
20,000 cells (Human or Mouse LBAT-overexpressing cells) were seeded in 96-wells plate (Corning CLS3809) in 100 μL MEM-alpha medium (Gibco 12571-063) supplemented with 10% FBS (Gibco 10438026) containing Geneticin (Gibco 10131-027) (1 mg/mL) and incubated at 37° C. in 5% CO2 for 24 hours. After incubation, media was decanted from the wells and cells were washed two times with 300 μL of basal MEM-alpha medium (FBS-free). After decanting basal MEM-alpha medium each time, plates were tapped against paper towel to ensure maximum removal of residual media.
For human LBAT, incubation mix was prepared by adding test inhibitor dilutions (3-fold serial dilution in DMSO (Sigma D2650), 10 points) in MEM-alpha (without FBS) containing 0.3 μM 3H-taurocholic acid (ARC ART-1368) and 7.5 μM cold taurocholic acid (Sigma T4009) (maintaining 0.2% final DMSO concentration). For mouse LBAT, incubation mix was prepared by adding test inhibitor dilutions (3-fold serial dilution in DMSO, 10 points) in MEM-alpha (without FBS) containing 0.3 μM 3H-taurocholic acid and 25 μM cold taurocholic acid maintaining 0.2% final DMSO concentration).
50 μL of incubation mix containing test inhibitors was then added to the wells (in duplicate) and the plates were incubated for 20 minutes in a CO2 incubator at 37° C. After incubation, the reaction was stopped by keeping the plates on ice water mix for 2-3 minutes and then the incubation mix was aspirated completely from the wells. The wells were washed two times with 250 μL of chilled unlabelled 1 mM taurocholic acid dissolved in HEPES (Gibco 15630080)-buffered (10 mM) HBSS (Gibco 14175079) (pH 7.4). The plates were tapped against a paper towel after every wash to ensure maximum removal of blocking buffer.
100 μL of MicroScint-20 (PerkinElmer 6013621) was added to the wells and kept overnight at room temperature before reading the plates in TopCount NXT™ Microplate Scintillation and Luminescence Counter from PerkinElmer under 3H Test protocol (set at 120 seconds reading time per well, with normal plate orientation).
Preparation of Test Compound Dilutions
All test compounds were provided in powder form at room temperature. 10 mM DMSO stocks of the test compounds were prepared, aliquoted and stored at −20° C. From the 10 mM DMSO stock of the compounds, a 3-fold serial dilution in DMSO was prepared to get a total of 10 dilutions of the test compounds. 0.5 μL of this dilution in DMSO was added to 250 μL of FBS-free basal media containing 3H-taurocholic acid and cold taurocholic acid to prepare the incubation mixture.

A short description of another series: Bioavailability studies. It counts as in vivo, Male mice (C57BL/6 or CD1) or Wistar rats. The following applies: male, plasma; single intravenous dose 1 mg/kg and single oral dose 10 mg/kg; species per compound not given. Here is the method: Male mice (C57BL/6 or CD1) or Wistar rats of 8-9 weeks old were used. For each test compound, two groups of 3 animals each were used. One group was administered a single intravenous dose of 1 mg/kg (vehicle 100% DMSO) through the tail vein and the other group was administered a single oral dose of 10 mg/kg through gavage needle. The group that was administered an oral dose was fasted overnight. Blood samples were collected after 0.083, 0.25, 0.5, 1, 2, 4, 6, 8 and 24 hours following intravenous administration, and after 0.25, 0.5, 1, 2, 4, 6, 8 and 24 hours following oral administration. Blood samples were taken from saphenous vein. 0.2% EDTA was used as the anticoagulant. The samples were analyzed by a discovery grade bioanalytical method developed for the estimation of test compound in plasma, using an LC-MS/MS system.

As to `CCCCC1CN(c2ccccc2)c2cc(SC)c(OCC(OC)C(=O)O)cc2S(=O)(=O)N1C` (single isomer, unassigned) [32, diastereomer 1], the IC50 at Human LBAT was 22 nM.
On the same count and under the same terms, the figure for `CCCCC1CN(c2ccccc2)c2cc(SC)c(OCC(C)(OC)C(=O)O)cc2S(=O)(=O)N1C` (single isomer, unassigned) [Example 23, 3-((3-Butyl-2-methyl-7-(methylthio)-1,1-dioxido-5-phenyl-2,3,4,5-tetrahydro-1,2,5-benzothiadiazepin-8-yl)oxy)-2-methoxy-2-methylpropanoic acid] is 14 nM; for `CCCCC1CN(c2ccccc2)c2cc(SCC)c(OCC(C)(C)C(=O)O)cc2S(=O)(=O)N1C` (single isomer, unassigned) [6, enantiomer 2] it is 6.2 nM.
The molecule `CCCCC1CN(c2ccccc2)c2cc(SC)c(OCC(C)(C)C(=O)O)cc2S(=O)(=O)N1C` (single isomer, unassigned) [2, enantiomer 2] had a bioavailability in “Bioavailability studies” of 100%. For the same molecule, the 50% inhibitory concentration (IC50) on Human LBAT came out at 2.3 nM.
In the case of `CCCCC1CN(c2ccccc2)c2cc(SC)c(OCC(C)(OC)C(=O)O)cc2S(=O)(=O)N1C` (single isomer, unassigned) [24, diastereomer 1], the IC50 on Human LBAT came out at 8.4 nM.
On the same count and under the same terms, for `CCCCC1CN(c2ccc(F)cc2)c2cc(SC)c(OCC(C)(C)C(=O)O)cc2S(=O)(=O)N1C` (centres unmarked) [Example 13, 3-((3-butyl-5-(4-fluorophenyl)-2-methyl-7-(methylthio)-1,1-dioxido-2,3,4,5-tetrahydro-1,2,5-benzothiadiazepin-8-yl)oxy)-2,2-dimethylpropanoic acid] the value was 3.3 nM.
The same measure, in the same setting: the figure for `CCCCC1CN(c2ccccc2)c2cc(SC)c(OCC3(C(=O)O)CC3)cc2S(=O)(=O)N1C` (centres unmarked) [Example 3, 1-(((3-Butyl-2-methyl-7-(methylthio)-1,1-dioxido-5-phenyl-2,3,4,5-tetrahydro-1,2,5-benzothiadiazepin-8-yl)oxy)methyl)cyclopropane-1-carboxylic acid] is 13 nM; for `CCCCC1CN(c2ccccc2)c2cc(SCC)c(OCC(C)(C)C(=O)O)cc2S(=O)(=O)N1C` (centres unmarked) [Example 5, 3-((3-Butyl-7-(ethylthio)-2-methyl-1,1-dioxido-5-phenyl-2,3,4,5-tetrahydro-1,2,5-benzothiadiazepin-8-yl)oxy)-2,2-dimethylpropanoic acid] it is 8.9 nM.
On the same count and under the same terms, for `CCCCC1CN(c2ccccc2)c2cc(SC)c(OCC(C)(OC)C(=O)O)cc2S(=O)(=O)N1C` (single isomer, unassigned) [24, diastereomer 2] the value was 16 nM.
For the molecule `CCCCC1CN(c2ccccc2)c2cc(SCC)c(OCC3(C(=O)O)CC3)cc2S(=O)(=O)N1C` (centres unmarked) [Example 7, 1-(((3-Butyl-7-(ethylthio)-2-methyl-1,1-dioxido-5-phenyl-2,3,4,5-tetrahydro-1,2,5-benzothiadiazepin-8-yl)oxy)methyl)cyclopropane-1-carboxylic acid], at Human LBAT, the IC50 was 25 nM.
Take `CCCCC1CN(c2ccccc2)c2cc(SCC)c(OCC3(C(=O)O)CC3)cc2S(=O)(=O)N1C` (single isomer, unassigned) [8, enantiomer 1]: in “Bioavailability studies”, the bioavailability was found to be 40%. Besides, the concentration for half-maximal inhibition (IC50) on Human LBAT was 5 nM.
`CCCCC1CN(c2ccccc2)c2cc(SC)c(OCC(C)(OC)C(=O)O)cc2S(=O)(=O)N1C` (centres unmarked) [Example 22, 3-((3-Butyl-2-methyl-7-(methylthio)-1,1-dioxido-5-phenyl-2,3,4,5-tetrahydro-1,2,5-benzothiadiazepin-8-yl)oxy)-2-methoxy-2-methylpropanoic acid]: on Human LBAT, the IC50 stood at 28 nM.
Same read-out and setting: for `CCCCC1CN(c2ccc(F)cc2)c2cc(SCC)c(OCC(O)C(=O)O)cc2S(=O)(=O)N1C` (centres unmarked) [Example 33, 3-((3-butyl-7-(ethylthio)-5-(4-fluorophenyl)-2-methyl-1,1-dioxido-2,3,4,5-tetrahydro-1,2,5-benzothiadiazepin-8-yl)oxy)-2-hydroxypropanoic acid] the value was 6 nM.
The molecule `CCCCC1CN(c2ccccc2)c2cc(SC)c(OCC3(C(=O)O)CC3)cc2S(=O)(=O)N1C` (single isomer, unassigned) [4, enantiomer 2] displayed a bioavailability in the series “Bioavailability studies” of 17%. Also, the IC50 at Human LBAT was 7.4 nM.
